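48-hour exposure; five concentrations; linearly interpolated endpoints. GI50 is the concentration that inhibits growth by half. TGI: concentration producing complete growth inhibition.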
How the values were obtained:
Assay in all cases: NCI tumour cell line growth inhibition, 48 h
786-0 renal = test system: 786-0 renal
HCC-2998 colon = test system: HCC-2998 colon
IGROV1 ovarian = test system: IGROV1 ovarian
LOX IMVI melanoma = test system: LOX IMVI melanoma
NCI-H23 lung = test system: NCI-H23 lung
OVCAR-3 ovarian = test system: OVCAR-3 ovarian
KM12 colon = test system: KM12 colon
MCF7 breast = test system: MCF7 breast
MDA-MB-435 = test system: MDA-MB-435
HL-60(TB) leukemia = test system: HL-60(TB) leukemia

## CN(C)CC1CCC/C1=N\O (stereo not drawn)
786-0 renal
  TGI: > 100 µM
HCC-2998 colon
  TGI: > 100 µM
IGROV1 ovarian
  TGI: > 100 µM
LOX IMVI melanoma
  TGI: > 100 µM
NCI-H23 lung
  TGI: > 100 µM
OVCAR-3 ovarian
  TGI: > 100 µM

## COC(=O)c1nc(Cl)nc(Cl)c1Cl
786-0 renal
  TGI: 33.1 µM
HCC-2998 colon
  TGI: 68.3 µM
IGROV1 ovarian
  TGI: 66 µM
KM12 colon
  TGI: 47.3 µM
LOX IMVI melanoma
  TGI: 29.6 µM
MCF7 breast
  TGI: 55.1 µM
MDA-MB-435
  TGI: 29.3 µM
NCI-H23 lung
  TGI: > 100 µM
OVCAR-3 ovarian
  TGI: 16.8 µM

## COC1C2C=CC(C2)[C@H]1[N+](=O)[O-] (stereo partly drawn)
786-0 renal
  TGI: > 100 µM
HCC-2998 colon
  TGI: > 100 µM
HL-60(TB) leukemia
  TGI: > 100 µM
IGROV1 ovarian
  TGI: > 100 µM
KM12 colon
  TGI: > 100 µM
LOX IMVI melanoma
  TGI: > 100 µM
NCI-H23 lung
  TGI: > 100 µM
OVCAR-3 ovarian
  TGI: > 100 µM

## C[C@]12CCCC(=O)C1(O)C[C@H](C(=O)O)CC2 (stereo partly drawn)
786-0 renal
  TGI: > 100 µM
HCC-2998 colon
  TGI: > 100 µM
HL-60(TB) leukemia
  TGI: > 100 µM
IGROV1 ovarian
  TGI: > 100 µM
KM12 colon
  TGI: > 100 µM
LOX IMVI melanoma
  TGI: > 100 µM
NCI-H23 lung
  TGI: > 100 µM
OVCAR-3 ovarian
  TGI: > 100 µM

## OCCNc1ncnc2c1ncn2Cc1cccc(COc2cccc(OCc3cccc(Cn4cnc5c(NCCO)ncnc54)c3)c2)c1
786-0 renal
  GI50: 15.5 µM
  TGI: 30.3 µM
HCC-2998 colon
  GI50: 15.1 µM
  TGI: 33.6 µM
HL-60(TB) leukemia
  GI50: 10.6 µM
  TGI: 29.3 µM
IGROV1 ovarian
  GI50: 12.9 µM
  TGI: 37.4 µM
KM12 colon
  GI50: 13.3 µM
  TGI: 38.8 µM
LOX IMVI melanoma
  GI50: 14.5 µM
  TGI: 30.1 µM
MCF7 breast
  GI50: 12.6 µM
  TGI: 26.1 µM
MDA-MB-435
  GI50: 14.9 µM
  TGI: 35.7 µM
OVCAR-3 ovarian
  GI50: 17.6 µM
  TGI: 36.7 µM

## Cc1cc(Cl)ccc1Nc1nc(C(F)(F)F)ccc1C(=O)N/N=C/c1ccc([N+](=O)[O-])cc1
786-0 renal
  GI50: 3.09 µM
  TGI: > 40.9 µM
HCC-2998 colon
  GI50: 1.43 µM
  TGI: 4.28 µM
IGROV1 ovarian
  GI50: 2.21 µM
  TGI: 12.9 µM
KM12 colon
  GI50: 0.838 µM
  TGI: 2.43 µM
LOX IMVI melanoma
  GI50: 1.16 µM
MCF7 breast
  GI50: 1.58 µM
  TGI: 6.93 µM
MDA-MB-435
  GI50: 2.45 µM
  TGI: 7.69 µM
NCI-H23 lung
  GI50: 1.65 µM
  TGI: > 22 µM
OVCAR-3 ovarian
  GI50: 0.777 µM
  TGI: 2.63 µM

## Cc1cc(C)c(C(=O)c2no[n+]([O-])c2C(=O)c2c(C)cc(C)c(Br)c2C)c(C)c1Br
786-0 renal
  TGI: 32.8 µM
HL-60(TB) leukemia
  TGI: 15.2 µM
IGROV1 ovarian
  TGI: 23.3 µM
KM12 colon
  TGI: 26.4 µM
NCI-H23 lung
  TGI: 24.3 µM
OVCAR-3 ovarian
  TGI: 29.5 µM

## CCOP(=O)(OCC)OC(C#N)c1ccc(-c2ccccc2)cc1 (stereo not drawn)
786-0 renal
  TGI: 31.6 µM
HCC-2998 colon
  TGI: 81.7 µM
HL-60(TB) leukemia
  TGI: 36.9 µM
IGROV1 ovarian
  TGI: > 100 µM
KM12 colon
  TGI: 33.2 µM
LOX IMVI melanoma
  TGI: 29.1 µM
NCI-H23 lung
  TGI: > 100 µM
OVCAR-3 ovarian
  TGI: 39.1 µM

## O=C(O)C1CCCCC1C(=O)O.[NH-]C1CCC1.[NH2-].[Pt+2] (stereo not drawn)
786-0 renal
  GI50: 15.4 µM
  TGI: 33 µM
HL-60(TB) leukemia
  GI50: 5.98 µM
  TGI: 52.8 µM
IGROV1 ovarian
  GI50: 57.5 µM
  TGI: > 100 µM
KM12 colon
  GI50: > 100 µM
  TGI: > 100 µM
LOX IMVI melanoma
  GI50: 6.35 µM
  TGI: 23.3 µM
MCF7 breast
  GI50: 22.7 µM
  TGI: > 100 µM
MDA-MB-435
  GI50: 15.7 µM
  TGI: 29.3 µM
NCI-H23 lung
  GI50: 22.4 µM
  TGI: > 100 µM
OVCAR-3 ovarian
  GI50: 15.8 µM
  TGI: 30.4 µM

## O=C(N/N=C(/CCN1CCCC1)CC(c1ccccc1)c1c(O)c2ccccc2oc1=O)c1ccncc1 (stereo not drawn)
786-0 renal
  TGI: > 100 µM
HCC-2998 colon
  TGI: > 100 µM
HL-60(TB) leukemia
  TGI: 84.8 µM
IGROV1 ovarian
  TGI: > 100 µM
KM12 colon
  TGI: > 100 µM
LOX IMVI melanoma
  TGI: > 100 µM
NCI-H23 lung
  TGI: > 100 µM
OVCAR-3 ovarian
  TGI: > 100 µM

## CC[C@]1(O)C(=O)OCc2c1cc1n(c2=O)Cc2cc3c(N)cccc3nc2-1
786-0 renal
  TGI: > 100 µM
HCC-2998 colon
  TGI: > 100 µM
HL-60(TB) leukemia
  TGI: > 100 µM
IGROV1 ovarian
  TGI: > 100 µM
KM12 colon
  TGI: > 100 µM
LOX IMVI melanoma
  TGI: > 100 µM
NCI-H23 lung
  TGI: > 100 µM
OVCAR-3 ovarian
  TGI: > 100 µM

## O=C1C(c2ccccc2)=[N+]([O-])c2ccccc21
786-0 renal
  TGI: 34.1 µM
HCC-2998 colon
  TGI: 38.8 µM
HL-60(TB) leukemia
  TGI: 42.2 µM
KM12 colon
  TGI: 55.2 µM
LOX IMVI melanoma
  TGI: 14.2 µM
MCF7 breast
  TGI: 4.88 µM
MDA-MB-435
  TGI: 11.2 µM
NCI-H23 lung
  TGI: 36.6 µM
OVCAR-3 ovarian
  TGI: 29.1 µM

## Cc1c(C(=O)NCCN2CCOCC2)cn2ncnc(Oc3ccc(NC(=O)Nc4ccc(Cl)c(C(F)(F)F)c4)cc3)c12
786-0 renal
  GI50: 1.67 µM
  TGI: 3.33 µM
HCC-2998 colon
  GI50: 2.04 µM
  TGI: 3.71 µM
HL-60(TB) leukemia
  GI50: 0.417 µM
  TGI: 1.7 µM
LOX IMVI melanoma
  GI50: 0.601 µM
  TGI: 1.94 µM
MDA-MB-435
  GI50: 1.29 µM
  TGI: 2.75 µM

## CCN(CC)C(=S)SC
786-0 renal
  TGI: > 100 µM
HCC-2998 colon
  TGI: > 100 µM
HL-60(TB) leukemia
  TGI: > 100 µM
IGROV1 ovarian
  TGI: > 100 µM
LOX IMVI melanoma
  TGI: > 100 µM
MCF7 breast
  TGI: > 100 µM
NCI-H23 lung
  TGI: > 100 µM
OVCAR-3 ovarian
  TGI: > 100 µM

## COC(=O)[C@]12CCC(C)[C@H](C)[C@H]1C1=CCC3[C@@]4(C)CC[C@H](OC(C)=O)C(C)(C)C4CC[C@@]3(C)C1(C)C(O)C2 (stereo partly drawn)
786-0 renal
  TGI: > 100 µM
HCC-2998 colon
  TGI: > 100 µM
IGROV1 ovarian
  TGI: > 100 µM
KM12 colon
  TGI: > 100 µM
LOX IMVI melanoma
  TGI: > 100 µM
NCI-H23 lung
  TGI: > 100 µM
OVCAR-3 ovarian
  TGI: > 100 µM

## CCCCN(CCCC)c1c([N+](=O)[O-])c(=O)nc2ccccn12
786-0 renal
  TGI: > 100 µM
IGROV1 ovarian
  TGI: > 100 µM
KM12 colon
  TGI: > 100 µM
NCI-H23 lung
  TGI: > 100 µM
OVCAR-3 ovarian
  TGI: > 100 µM

## CC(=O)NC(CCCCNC(=O)NCCCl)C(=O)NCc1ccccc1 (stereo not drawn)
786-0 renal
  TGI: > 100 µM
HCC-2998 colon
  TGI: > 100 µM
HL-60(TB) leukemia
  TGI: > 100 µM
KM12 colon
  TGI: > 100 µM
NCI-H23 lung
  TGI: > 100 µM
OVCAR-3 ovarian
  TGI: > 100 µM

## COc1ccc(/C=C\c2cc(OC)c(O[Si](C)(C)C(C)(C)C)c(OC)c2)cc1
786-0 renal
  TGI: > 100 µM
HCC-2998 colon
  TGI: > 100 µM
IGROV1 ovarian
  TGI: > 100 µM
KM12 colon
  TGI: > 100 µM
NCI-H23 lung
  TGI: > 100 µM
OVCAR-3 ovarian
  TGI: > 100 µM

## CC(=O)OCC(OC(C)=O)C(OC(C)=O)C(OC(C)=O)C(=O)CNn1c(-c2ccccc2Cl)nc2ccccc2c1=O (stereo not drawn)
786-0 renal
  TGI: > 100 µM
HL-60(TB) leukemia
  TGI: > 100 µM
KM12 colon
  TGI: > 100 µM
LOX IMVI melanoma
  TGI: > 100 µM
NCI-H23 lung
  TGI: > 100 µM
OVCAR-3 ovarian
  TGI: > 100 µM

## COc1ccc2c(c1)/C(=C\c1c(Cl)[nH]c3ccc(OC)cc13)C(=O)N2
786-0 renal
  GI50: 43.7 µM
  TGI: > 100 µM
HL-60(TB) leukemia
  GI50: 26.9 µM
  TGI: 67.3 µM
IGROV1 ovarian
  GI50: 56.9 µM
  TGI: > 100 µM
KM12 colon
  GI50: 17.5 µM
  TGI: 34.9 µM
LOX IMVI melanoma
  GI50: 25.8 µM
  TGI: 54.3 µM
MCF7 breast
  GI50: 44.9 µM
  TGI: > 100 µM
MDA-MB-435
  GI50: 33.7 µM
  TGI: > 100 µM
NCI-H23 lung
  GI50: > 100 µM
  TGI: > 100 µM
OVCAR-3 ovarian
  GI50: 29.4 µM
  TGI: > 100 µM

## COC1OC(CO)C(O)C1N (stereo not drawn)
786-0 renal
  TGI: > 100 µM
HL-60(TB) leukemia
  TGI: > 100 µM
IGROV1 ovarian
  TGI: > 100 µM
KM12 colon
  TGI: > 100 µM
LOX IMVI melanoma
  TGI: > 100 µM
NCI-H23 lung
  TGI: > 100 µM
OVCAR-3 ovarian
  TGI: > 100 µM

## CN(C)/N=C(/c1nc2ccc(Cl)cc2[nH]c1=O)C(O)c1ccc(C(O)/C(=N\N(C)C)c2nc3ccc(Cl)cc3[nH]c2=O)cc1 (stereo not drawn)
786-0 renal
  TGI: > 100 µM
HCC-2998 colon
  TGI: > 100 µM
HL-60(TB) leukemia
  TGI: > 100 µM
IGROV1 ovarian
  TGI: > 100 µM
KM12 colon
  TGI: > 100 µM
NCI-H23 lung
  TGI: > 100 µM
OVCAR-3 ovarian
  TGI: > 100 µM
